Assay results from US8962596B2 (Array BioPharma Inc., priority 2010, dated 2015).

Experiments:
Type in all cases: biochemical
Human Tyk2 kinase domain = target: T1, Human Tyk2 kinase domain (Homo sapiens, UniProt P29597); test: Tyk2 Inhibition Assay (Omnia kinase fluorescence peptide substrate assay); settings: averaged IC50 ranges; assay of Example A; 10 μM (Km app) or 1 mM ATP, 2 nM Tyk2
T1 construct: comprising amino acids 886 to 1187 with 10 additional histidine residues; 10xHis (histidine tag) (C, cleaved yes); made in house
T1 sequence (P29597 886-1187): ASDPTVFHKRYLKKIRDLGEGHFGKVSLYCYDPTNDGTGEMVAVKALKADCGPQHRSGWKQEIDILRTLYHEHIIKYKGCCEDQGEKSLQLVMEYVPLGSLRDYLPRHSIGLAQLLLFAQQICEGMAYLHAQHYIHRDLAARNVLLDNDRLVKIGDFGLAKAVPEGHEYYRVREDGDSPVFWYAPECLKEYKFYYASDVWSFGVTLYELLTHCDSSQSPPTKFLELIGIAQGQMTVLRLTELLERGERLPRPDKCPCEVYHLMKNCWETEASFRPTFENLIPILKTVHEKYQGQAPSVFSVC
Description: (§1) The assays described in Examples A, B, C and D for the determination of Tyk2, JAK1, JAK2 and JAK3 kinase activity, respectively, utilized the Omnia® Kinase fluorescence peptide substrate-based technology (Invitrogen). The specific components of the assay mixture are described in Examples A, B, C and D. In these assays, Mg^2+ is chelated upon phosphorylation of the Omnia peptide by the kinase to form a bridge between the chelation-enhanced fluorophore Sox and the phosphate, resulting in an increase in fluorescence emission at 485 nm when excited at […]. The reactions were therefore read at excitation 360 nm and emission was measured at 485 nm every 50 seconds for 45 minutes using a PerkinElmer EnVision Multilabel Plate Reader.
(§2) The final buffer conditions for Tyk2, JAK1, JAK2, and JAK3 assays were as follows: 25 mM HEPES, pH 7.4, 10 mM MgCl2, 0.01% Triton X-100 and 1 mM DTT.
(§3) Compounds were prepared at 50× the final concentration in DMSO by conducting 3-fold serial dilutions from a 500-μM intermediate dilution to give a 10-point dosing curve having a high dose of 10 μM. Two-μL aliquots of these were transferred to a fresh plate for a ten-fold intermediate dilution with assay buffer. Five-μL aliquots of the diluted compounds were then transferred to 20-μL of assay mixtures described in Examples A, B, C and D for a final concentration of DMSO of 2%. A standard or reference compound was typically included on each assay plate to validate that plate. For each plate, percent of control (POC) values were calculated for each well according to the following equation:
(§4) where Xmax=Average Uninhibited Controls • Xmin=Average Background IC50's were estimated from the POC's using a standard 4-parameter logistic model:
(§5) where • A=Minimum Y (Bottom Asymptote) • B=Maximum Y (Top Asymptote) • C=EC50 • D=Slope Factor • X=Compound Concentration (nM) • Y=POC
(§6) The IC50 is defined as the concentration of inhibitor at which the POC equals 50 for the fitted curve.
Compounds of Formula I were screened for their ability to inhibit Tyk2 using the general enzyme inhibition assay method, in which the assay mixture contained 10 μM (Km app) or 1 mM ATP, 8 μM Omnia® Y12 peptide (Catalog #IVGN KPZ3121C; Invitrogen Corporation, Carlsbad, Calif.) and 2 nM Tyk2 in a total volume of 20 μL. Human Tyk2 kinase domain, comprising amino acids 886 to 1187 with 10 additional histidine residues (histidine tag) on the carboxy terminus, was expressed and purified from bacculovirus in-house at Array BioPharma Inc. (Boulder, Colo.). The histidine tag was cleaved after purification using standard conditions.

JAK2 = target: T2, JAK2 (Homo sapiens, UniProt O60674); test: JAK2 Inhibition Assay (Omnia kinase fluorescence peptide substrate assay); settings: averaged IC50 ranges; assay of Example C; 25 μM (Km app) or 1 mM ATP, 5 nM JAK2
T2 construct: purchased Invitrogen Corporation, Carlsbad, Calif; PV4288
Description: as §1, §2, §3, §4, §5, §6
(§7) Compounds of Formula I were screened for their ability to inhibit JAK2 using the general enzyme inhibition assay method, in which the assay mixture contained 25 μM (Km app) or 1 mM ATP, 10 μM Omnia® Y7 peptide (Catalog #IVGN KNZ3071C, Invitrogen Corporation, Carlsbad, Calif.) and 5 nM JAK2 in a total volume of 20 μL. JAK2 was purchased from Invitrogen Corporation, Carlsbad, Calif. (catalog #IVGN PV4288).

JAK3 = target: T3, JAK3 (Homo sapiens, UniProt P52333); test: JAK3 Inhibition Assay (Omnia kinase fluorescence peptide substrate assay); settings: averaged IC50 ranges; assay of Example D; 10 μM (Km app) or 1 mM ATP, 2.5 nM JAK3
T3 construct: purchased Invitrogen Corporation, Carlsbad, Calif; PV4080
T3 sequence (P52333 1-1124): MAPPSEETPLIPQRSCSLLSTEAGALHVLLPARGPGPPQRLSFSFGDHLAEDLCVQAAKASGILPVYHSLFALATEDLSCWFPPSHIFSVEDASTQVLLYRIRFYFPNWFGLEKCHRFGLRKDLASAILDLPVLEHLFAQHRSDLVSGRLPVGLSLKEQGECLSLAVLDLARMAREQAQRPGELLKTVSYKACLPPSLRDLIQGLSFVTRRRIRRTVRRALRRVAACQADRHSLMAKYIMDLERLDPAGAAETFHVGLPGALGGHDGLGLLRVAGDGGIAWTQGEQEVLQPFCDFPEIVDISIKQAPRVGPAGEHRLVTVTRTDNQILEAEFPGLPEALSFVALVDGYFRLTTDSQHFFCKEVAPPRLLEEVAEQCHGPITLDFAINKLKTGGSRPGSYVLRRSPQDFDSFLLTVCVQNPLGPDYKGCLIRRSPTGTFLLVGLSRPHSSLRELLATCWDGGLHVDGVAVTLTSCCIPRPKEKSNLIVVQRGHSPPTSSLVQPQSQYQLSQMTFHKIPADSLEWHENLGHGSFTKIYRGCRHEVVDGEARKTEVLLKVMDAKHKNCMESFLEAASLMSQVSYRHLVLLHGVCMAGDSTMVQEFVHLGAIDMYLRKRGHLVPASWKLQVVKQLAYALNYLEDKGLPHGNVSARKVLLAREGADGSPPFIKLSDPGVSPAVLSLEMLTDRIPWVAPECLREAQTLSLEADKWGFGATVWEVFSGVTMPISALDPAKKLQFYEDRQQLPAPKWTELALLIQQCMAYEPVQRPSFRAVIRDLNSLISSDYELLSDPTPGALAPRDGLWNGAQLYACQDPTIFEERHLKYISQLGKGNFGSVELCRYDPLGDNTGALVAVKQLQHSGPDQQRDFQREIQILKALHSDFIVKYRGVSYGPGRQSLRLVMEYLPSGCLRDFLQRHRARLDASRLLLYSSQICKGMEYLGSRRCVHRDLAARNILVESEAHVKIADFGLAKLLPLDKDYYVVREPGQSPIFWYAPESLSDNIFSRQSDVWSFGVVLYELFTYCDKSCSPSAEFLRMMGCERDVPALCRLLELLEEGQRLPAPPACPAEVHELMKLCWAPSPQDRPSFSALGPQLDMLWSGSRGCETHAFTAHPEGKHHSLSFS
Description: as §1, §2, §3, §4, §5, §6
as §7, with “JAK3” for “JAK2”, “10” for “25”, “2.5” for “5”, “PV4080).” for “PV4288).”

JAK1 = target: T4, JAK1 (Homo sapiens, UniProt P23458); test: JAK1 Inhibition Assay (Omnia kinase fluorescence peptide substrate assay); settings: averaged IC50 ranges; assay of Example B; 40 μM (Km app) or 1 mM ATP, 15 nM JAK1
T4 construct: purchased Invitrogen Corporation, Carlsbad, Calif; PV4775
Description: as §1, §2, §3, §4, §5, §6
Compounds of Formula I were screened for their ability to inhibit JAK1 using the general enzyme inhibition assay method, in which the assay mixture contained 40 μM (Km app) or 1 mM ATP, 8 μM Omnia® Y12 peptide (Catalog #IVGN KPZ3121C; Invitrogen Corporation, Carlsbad, Calif.) and 15 nM JAK1 in a total volume of 20 μL. JAK1 was purchased from Invitrogen Corporation, Carlsbad, Calif. (catalog #IVGN PV4775).

T4 sequence (P23458 whole entry): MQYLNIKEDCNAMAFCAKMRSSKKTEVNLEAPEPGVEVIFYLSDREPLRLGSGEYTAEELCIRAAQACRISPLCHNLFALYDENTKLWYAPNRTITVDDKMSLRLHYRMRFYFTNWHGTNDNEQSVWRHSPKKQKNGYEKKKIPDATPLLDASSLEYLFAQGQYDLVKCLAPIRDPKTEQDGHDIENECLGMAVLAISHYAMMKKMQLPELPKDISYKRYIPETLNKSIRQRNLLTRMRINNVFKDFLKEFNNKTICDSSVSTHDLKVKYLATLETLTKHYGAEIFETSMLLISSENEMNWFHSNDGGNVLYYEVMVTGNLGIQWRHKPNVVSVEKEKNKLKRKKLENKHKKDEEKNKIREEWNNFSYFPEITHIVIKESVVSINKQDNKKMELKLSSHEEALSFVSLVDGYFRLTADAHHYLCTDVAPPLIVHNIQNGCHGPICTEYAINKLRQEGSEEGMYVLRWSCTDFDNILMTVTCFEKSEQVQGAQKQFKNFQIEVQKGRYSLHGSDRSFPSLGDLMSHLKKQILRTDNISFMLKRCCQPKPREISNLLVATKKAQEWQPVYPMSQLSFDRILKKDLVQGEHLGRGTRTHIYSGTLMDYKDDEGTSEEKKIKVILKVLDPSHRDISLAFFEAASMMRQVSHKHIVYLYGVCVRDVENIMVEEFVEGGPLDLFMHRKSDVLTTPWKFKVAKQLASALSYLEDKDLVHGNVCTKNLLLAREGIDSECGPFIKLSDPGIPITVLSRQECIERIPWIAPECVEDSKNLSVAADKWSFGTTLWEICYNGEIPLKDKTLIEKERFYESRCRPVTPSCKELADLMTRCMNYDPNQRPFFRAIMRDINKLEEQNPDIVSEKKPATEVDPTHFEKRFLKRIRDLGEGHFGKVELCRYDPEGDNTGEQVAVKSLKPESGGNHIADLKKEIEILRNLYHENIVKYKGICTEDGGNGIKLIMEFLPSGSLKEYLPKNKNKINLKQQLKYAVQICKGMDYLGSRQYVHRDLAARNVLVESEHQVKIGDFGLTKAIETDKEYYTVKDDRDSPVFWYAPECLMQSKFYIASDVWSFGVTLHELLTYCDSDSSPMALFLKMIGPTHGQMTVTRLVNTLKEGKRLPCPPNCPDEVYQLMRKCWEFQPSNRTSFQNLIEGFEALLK
T2 sequence (O60674 whole entry): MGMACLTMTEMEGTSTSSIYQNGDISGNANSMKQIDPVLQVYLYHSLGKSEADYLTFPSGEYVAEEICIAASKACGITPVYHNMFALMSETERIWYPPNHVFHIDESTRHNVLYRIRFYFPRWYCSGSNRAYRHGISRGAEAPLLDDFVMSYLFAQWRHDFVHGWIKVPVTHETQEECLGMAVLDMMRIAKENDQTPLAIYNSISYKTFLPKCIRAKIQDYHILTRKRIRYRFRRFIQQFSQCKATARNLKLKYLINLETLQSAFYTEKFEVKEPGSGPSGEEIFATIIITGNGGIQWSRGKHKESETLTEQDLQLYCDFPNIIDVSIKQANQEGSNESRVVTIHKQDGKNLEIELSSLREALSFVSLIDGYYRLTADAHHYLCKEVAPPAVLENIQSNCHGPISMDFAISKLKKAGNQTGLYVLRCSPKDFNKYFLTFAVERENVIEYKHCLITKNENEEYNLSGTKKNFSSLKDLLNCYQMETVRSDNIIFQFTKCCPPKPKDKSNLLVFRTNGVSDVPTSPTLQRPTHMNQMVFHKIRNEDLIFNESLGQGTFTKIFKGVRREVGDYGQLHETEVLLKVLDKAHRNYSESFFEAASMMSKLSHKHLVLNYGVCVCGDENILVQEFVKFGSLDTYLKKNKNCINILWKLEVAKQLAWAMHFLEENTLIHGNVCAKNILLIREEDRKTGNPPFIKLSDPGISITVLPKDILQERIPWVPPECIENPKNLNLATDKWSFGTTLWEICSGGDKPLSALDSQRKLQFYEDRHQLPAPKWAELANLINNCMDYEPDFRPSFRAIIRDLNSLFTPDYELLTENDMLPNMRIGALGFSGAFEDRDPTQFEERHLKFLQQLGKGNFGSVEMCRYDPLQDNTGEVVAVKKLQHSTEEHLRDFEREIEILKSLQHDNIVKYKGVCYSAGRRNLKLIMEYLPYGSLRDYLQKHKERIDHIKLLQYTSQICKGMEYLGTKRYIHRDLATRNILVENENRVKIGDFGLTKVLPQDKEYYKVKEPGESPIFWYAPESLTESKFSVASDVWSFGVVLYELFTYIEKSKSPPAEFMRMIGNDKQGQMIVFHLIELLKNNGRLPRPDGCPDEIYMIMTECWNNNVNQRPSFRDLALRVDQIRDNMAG

IC50 (Human Tyk2 kinase domain) | IC50 (JAK2) | IC50 (JAK3) | IC50 (JAK1) | SMILES
0.01 to 0.1 µM | 0.1 to 1 µM | > 1 µM | 0.1 to 1 µM | Cn1cc(-c2cc3nccn3c(-c3cnn(C4(CC#N)CN(C5CC5)C4)c3)n2)cn1 [Example 66, 2-(1-Cyclopropyl-3-(4-(7-(1-methyl-1H-pyrazol-4-yl)imidazo[1,2-c]pyrimidin-5-yl)-1H-pyrazol-1-yl)azetidin-3-yl)acetonitrile]
0.01 to 0.1 µM | 0.1 to 1 µM | > 1 µM | 0.1 to 1 µM | Cn1cc(-c2cc3nccn3c(-c3cnn(CCC#N)c3)n2)cn1 [Example 19, 3-(4-(7-(1-methyl-1H-pyrazol-4-yl)imidazo[1,2-c]pyrimidin-5-yl)-1H-pyrazol-1-yl)propanenitrile]
< 0.01 µM | 0.01 to 0.1 µM | > 1 µM | 0.1 to 1 µM | Cn1cc(-c2cc3nccn3c(-c3cnn(C4(CC#N)CN(CCF)C4)c3)n2)cn1 [Example 77, 2-(1-(2-fluoroethyl)-3-(4-(7-(1-methyl-1H-pyrazol-4-yl)imidazo[1,2-c]pyrimidin-5-yl)-1H-pyrazol-1-yl)azetidin-3-yl)acetonitrile]
0.1 to 1 µM | > 1 µM | > 1 µM | > 1 µM | N#CCC(C1CC1)n1cc(-c2nc(C(=O)NC3CCCCC3)cc3nccn23)cn1 (stereo not drawn) [Example 123, 5-(1-(2-Cyano-1-cyclopropylethyl)-1H-pyrazol-4-yl)-N-cyclohexylimidazo[1,2-c]pyrimidine-7-carboxamide]
0.01 to 0.1 µM | 0.1 to 1 µM | > 1 µM | 0.1 to 1 µM | Cc1ccc(-c2cc3nccn3c(-c3cnn(C(CC#N)C4CC4)c3)n2)cn1 (stereo not drawn) [Example 49, 3-Cyclopropyl-3-(4-(7-(6-methylpyridin-3-yl)imidazo[1,2-c]pyrimidin-5-yl)-1H-pyrazol-1-yl)propanenitrile]
0.01 to 0.1 µM | 0.1 to 1 µM | > 1 µM | > 1 µM | Cn1ccc(-c2cc3nccn3c(-c3ccn(C4(CC#N)CN(CC(F)(F)F)C4)n3)n2)cc1=O [Example 144, 2-(3-(3-(7-(1-methyl-2-oxo-1,2-dihydropyridin-4-yl)imidazo[1,2-c]pyrimidin-5-yl)-1H-pyrazol-1-yl)-1-(2,2,2-trifluoroethyl)azetidin-3-yl)acetonitrile]
< 0.01 µM | 0.01 to 0.1 µM | 0.1 to 1 µM | 0.01 to 0.1 µM | CN1CCN(c2ccc(-c3cc4nccn4c(-c4cnn(C(CC#N)C5CC5)c4)n3)cc2)CC1 (stereo not drawn) [Example 59, 3-Cyclopropyl-3-(4-(7-(4-(4-methylpiperazin-1-yl)phenyl)imidazo[1,2-c]pyrimidin-5-yl)-1H-pyrazol-1-yl)propanenitrile]
0.01 to 0.1 µM | 0.01 to 0.1 µM | 0.1 to 1 µM | 0.01 to 0.1 µM | CN1CCc2cc(-c3cc4nccn4c(-c4cnn(C(CC#N)C5CC5)c4)n3)ccc2C1 (stereo not drawn) [Example 53, 3-Cyclopropyl-3-(4-(7-(2-methyl-1,2,3,4-tetrahydroisoquinolin-6-yl)imidazo[1,2-c]pyrimidin-5-yl)-1H-pyrazol-1-yl)propanenitrile]
< 0.01 µM | 0.01 to 0.1 µM | 0.1 to 1 µM | 0.1 to 1 µM | CCn1cc(-c2cc3nccn3c(-c3cnn(C(CC#N)C4CC4)c3)n2)cn1 (stereo not drawn) [Example 40, 3-cyclopropyl-3-(4-(7-(1-ethyl-1H-pyrazol-4-yl)imidazo[1,2-c]pyrimidin-5-yl)-1H-pyrazol-1-yl)propanenitrile]
< 0.01 µM | 0.01 to 0.1 µM | > 1 µM | 0.01 to 0.1 µM | Cc1ncc(-c2cc3nccn3c(-c3cnn(C4(CC#N)CN(S(=O)(=O)C(F)(F)F)C4)c3)n2)s1 [Example 139, 2-(3-(4-(7-(2-methylthiazol-5-yl)imidazo[1,2-c]pyrimidin-5-yl)-1H-pyrazol-1-yl)-1-(trifluoromethylsulfonyl)azetidin-3-yl)acetonitrile]
< 0.01 µM | 0.01 to 0.1 µM | 0.1 to 1 µM | 0.1 to 1 µM | Cn1cc(-c2cc3ncc(F)n3c(-c3cnn(C(CC#N)C4CC4)c3)n2)cn1 (stereo not drawn) [Example 152, 3-cyclopropyl-3-(4-(3-fluoro-7-(1-methyl-1H-pyrazol-4-yl)imidazo[1,2-c]pyrimidin-5-yl)-1H-pyrazol-1-yl)propanenitrile]
0.01 to 0.1 µM | 0.1 to 1 µM | > 1 µM | 0.1 to 1 µM | Cn1cc(-c2cc3nccn3c(-c3cnn(C4(CC#N)CN(CCC(F)(F)F)C4)c3)n2)cn1 [Example 86, 2-(3-(4-(7-(1-methyl-1H-pyrazol-4-yl)imidazo[1,2-c]pyrimidin-5-yl)-1H-pyrazol-1-yl)-1-(3,3,3-trifluoropropyl)azetidin-3-yl)acetonitrile]
